In PMC9773825:

Test: not told

In the case of `CON(C)Cc1ccc(O)c2c1CC1CC3C(N(C)C)C(O)=C(C(N)=O)C(=O)C3(O)C(O)=C1C2=O` (stereo not drawn), the “log partition chloroform / water/buffer” value (pH 3.5, 25) is reported as 1.14 log10, the “log partition octanol / water/buffer” value (pH 3.5, 25) is reported as −0.30 log10 and the “log partition chloroform / water/buffer” value (pH 5.5, 25) is reported as 1.48 log10. The “log partition octanol / water/buffer” value (pH 5.5, 25) was −0.16 log10, the “log partition chloroform / water/buffer” value (pH 7.4, 25) was 1.46 log10 and the “log partition octanol / water/buffer” value (pH 7.4, 25) was −0.26 log10.
